Here are results for one compound from US20240148757A1, “USE OF DIHYDROOROTATE DEHYDROGENASE (DHODH) INHIBITORS TO TARGET FERROPTOSIS IN CANCER THERAPY” (BOARD OF REGENTS, THE UNIVERSITY OF TEXAS SYSTEM, priority 2021, published 2024).

The test system of one assay is GPX4-knockdown tumors. As to the kind of experiment: GPX4-knockdown HT-1080 xenograft model. In kind it is in vivo, athymic nude mice. To be noted: liproxstatin-1 10 mg/kg intraperitoneally daily. Here is the method: (§1) Fresh tumor tissues were fixed in 10% neutral buffered formalin overnight, washed once with PBS, and stored in 70% ethanol at 4° C. The tissues were dehydrated and embedded in paraffin by the Research Histology Core Laboratory (MD Anderson Cancer Center) according to standard protocols. Embedded tissues were sectioned at a thickness of 5 μm for H&E or immunohistochemistry (IHC) analysis. IHC analysis was performed as previously described (Gan, B., et al., Cancer Cell 18, 472-484 (2010); Gan, B., et al., J Cell Biol 175, 121-133 (2006)). Briefly, the primary antibodies, including ki-67 (1:500, 9027s, Cell Signaling Technology), cleaved-caspase 3 (1:500, 9661s, Cell Signaling Technology), or 4-HNE (1:400, ab46545, Abcam) were incubated overnight at 4° C. Staining was performed using the Vectastain elite ABC kit and DAB peroxidase substrate kit (Vector laboratories). Images were randomly taken from the […] (five images per tumor) at ×200 magnification using an Olympus BX43 microscope. All the xenograft experiments were performed in accordance with a protocol approved by the Institutional Animal Care and Use Committee and Institutional Review Board at The University of Texas MD Anderson Cancer Center. The study is compliant with all relevant ethical regulations regarding animal research. Female 4- to 6-week-old athymic nude mice (Foxn1^nu/Foxn1^nu) were purchased from the Experimental Radiation Oncology Breeding Core Facility at MD Anderson Cancer Center and housed in the Animal Care Facility at the Department of Veterinary Medicine and Surgery at MD Anderson. Cancer cell lines were suspended and counted in cold phosphate-buffered saline (PBS), and 5×10^6 HT-1080 or 1×10^7 NCI-H226 cells were injected into mice subcutaneously. When the tumor reached 50-100 mm^3, the mice were assigned randomly into different treatment groups. Brequinar or sulfasalazine was dissolved in dimethyl sulfoxide (DMSO) and diluted in PBS. Brequinar was intraperitoneally injected into mice at a dose of 30 mg/kg every three days. Sulfasalazine was intraperitoneally injected daily at a dose of 100 mg/kg. Liproxstatin-1 diluted in PBS was intraperitoneally injected daily at a dose of 10 mg/kg. The daily injection of brequinar, sulfasalazine, or liproxstatin-1 was continued until the endpoint as indicated in the corresponding figures. The tumor volume was measured every 3 days until the endpoint and calculated according to the equation volume=length×width^2×½.

For another assay, the system named is HT-1080 xenograft tumors. The assay is described as follows: HT-1080 cell line-derived xenograft model. The assay is classed as in vivo, athymic nude mice. To be noted: liproxstatin-1 10 mg/kg intraperitoneally daily. Here is the method:
as §1

For the next assay, the system named is HT-1080 cells. As to the kind of experiment: Metabolic tracer analysis of pyrimidine synthesis (amide-15N-glutamine). The assay is classed as cell-based, human. Particulars: Lip-1 10 μM. The procedure:
Metabolomic analysis was performed as previously described (Liu, X., et al., Nat Cell Biol 22, 476-486 (2020)). Cells were seeded on 35 mm culture plates at a density sufficient to ensure approximately 70-80% confluence at the time of extraction. For metabolic tracer analysis of pyrimidine synthesis, HT-1080 cells were treated with RSL3 and/or Lip-1 for 2 hours and then were shifted to drug-free media containing amide-^15N-glutamine (this time point is defined as 0 hour). Metabolites were extracted at the indicated time points for subsequent analyses. Metabolites were extracted by rapidly aspirating the culture medium and then adding 0.6 mL of an 80% methanol: 20% water mixture at dry ice temperature. The plates were incubated on dry ice for 15 minutes before the cell material was scraped into eppendorf tubes pre-chilled on ice. The cell debris was pelleted by centrifugation at 13,000 RCF for 5 minutes at 4° C. and the supernatant was transferred to a fresh tube and stored on dry ice until analysis. […]
The complete platform consists of an Accela 1250 HPLC system, Accela Open Autosampler, MayLab Mistraswitch column oven and Exactive orbitrap mass spectrometer, controlled by the Xcalibur 3.0.63 software package. […] The data were analyzed using the MAVEN software suite57 with signal intensity determined as the Peak Area (Top). […]

The test system of assay [1] is GPX4^low patient-derived xenografts (PDXs). As to the kind of experiment: GPX4^low patient-derived xenograft model. The assay is classed as in vivo, NSG mice. To be noted: liproxstatin-1 10 mg/kg intraperitoneally daily. The text has this: PDXs were generated in accordance with protocols approved by the Institutional Review Board at The University of Texas MD Anderson Cancer Center. Informed consent was obtained from the patients and the study is compliant with all relevant ethical regulations regarding research involving human participants. All the NOD scid gamma (NSG) mice were purchased from the Experimental Radiation Oncology Breeding Core Facility at MD Anderson Cancer Center and housed in the Animal Care Facility at the Department of Veterinary Medicine and Surgery at MD Anderson Cancer Center. PDX model used in this study was originally obtained from lung cancer PDX platform at MD Anderson Cancer Center. PDX experiments were performed as previously described (Liu, X., et al., Nat Cell Biol 22, 476-486 (2020)). Briefly, PDX tumors in cold DMEM media were minced into fragments 1-2 mm^3 in volume. Then each PDX tumor fragment was subcutaneously inoculated into the dorsal flank of NSG mice. When the tumors reached 50-100 mm 3 in volume, the mice were assigned randomly into different treatment groups for the treatment of brequinar, sulfasalazine, and/or liproxstatin-1 as described under cell line-derived xenograft model. The tumor volume was measured every 3 days until the endpoint and calculated according to the equation volume=length×width^2×½.

The test system of a further assay is DHODH KO HT-1080 cells. As to the kind of experiment: Mitochondrial lipid peroxidation (mito-BODIPY) in DHODH KO HT-1080 cells. In kind it is cell-based, human. Particulars: pretreatment 10 μM, 24 hours.

On to `Clc1cccc(CN=C2Nc3ccccc3NC23CCNCC3)c1` [liproxstatin-1], for which the “restoration of tumor growth under brequinar treatment” value in the assay with GPX4-knockdown tumors is reported as “largely restored the growth”. Moreover, the “restoration of tumor growth suppressed by brequinar and sulfasalazine” value in the assay on HT-1080 xenograft tumors is listed as “largely restored”. The “rescue of RSL3-induced increase of 15N-UMP levels” value with HT-1080 cells was “completely rescued”. In addition, in assay [1], the “restoration of brequinar-suppressed tumor growth” value is “could be restored”. Further, in the assay on DHODH KO HT-1080 cells, the “suppression of GPX4 inhibitor-induced mitochondrial lipid peroxidation” value is listed as “could be suppressed”.
